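Tested at 5 concentrations; 48 h exposure; 96-well plates; endpoints linearly interpolated, else capped at highest concentration. The concentration for 50% growth inhibition is given as GI50.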 Calls of active or inactive are those of the source. No stated cut-off is given here; in the data, active = GI50 up to about 1.1 µM and inactive = higher.
Tests used:
Assay in all cases: NCI-60 cell line screen, 48 h
A549 = test system: A549
DMS-273 = test system: DMS-273
HCT-116 = test system: HCT-116
HCT-15 = test system: HCT-15
HOP-62 = test system: HOP-62
IGROV-1 = test system: IGROV-1
MDA-MB-435 = test system: MDA-MB-435
MDA-N = test system: MDA-N
MOLT-4 = test system: MOLT-4
NCI-H23 = test system: NCI-H23
NCI-H522 = test system: NCI-H522
NCI/ADR-RES = test system: NCI/ADR-RES
OVCAR-3 = test system: OVCAR-3
OVCAR-8 = test system: OVCAR-8
RXF 393 = test system: RXF 393
SF-539 = test system: SF-539
SK-MEL-28 = test system: SK-MEL-28
SNB-19 = test system: SNB-19
TK-10 = test system: TK-10
UO-31 = test system: UO-31

Structure (SMILES) | GI50 (A549) | GI50 (DMS-273) | GI50 (HCT-116) | GI50 (HCT-15) [nM] | GI50 (HOP-62) | GI50 (IGROV-1) | GI50 (MDA-MB-435) | GI50 (MDA-N) | GI50 (MOLT-4) | GI50 (NCI-H23) | GI50 (NCI-H522) | GI50 (NCI/ADR-RES) | GI50 (OVCAR-3) | GI50 (OVCAR-8) | GI50 (RXF 393) | GI50 (SF-539) | GI50 (SK-MEL-28) | GI50 (SNB-19) | GI50 (TK-10) | GI50 (UO-31)
CCCCCCCCCCCC(=O)OC[C@@H](C[As](=O)(O)O)OC(=O)CCCCCCCCCCC | 14200 nM (inactive) | 3260 nM (inactive) | 8450 nM (inactive) | 9040 | 9950 nM (inactive) | 1850 nM (inactive) | 3850 nM (inactive) | 4290 nM (inactive) | 5510 nM (inactive) | 5690 nM (inactive) | 2470 nM (inactive) | 17300 nM (inactive) | 4190 nM (inactive) | 9980 nM (inactive) | 2430 nM (inactive) | 12600 nM (inactive) | 4540 nM (inactive) | 3070 nM (inactive) | 11600 nM (inactive) | 14800 nM (inactive)
CCC/C(=N\NC(=S)N1CCN(c2ccccn2)CC1)c1ccccn1 | 118 nM (active) | 1.17 nM (active) | 1.22 nM (active) | 5.28 | 141 nM (active) | 2.34 nM (active) | 133 nM (active) | 157 nM (active) | – | 8.81 nM (active) | 41.3 nM (active) | – | 32.5 nM (active) | 3.14 nM (active) | 269 nM (active) | – | 367 nM (active) | 14.2 nM (active) | 335 nM (active) | 70.2 nM (active)

— ChEMBL document CHEMBL1201862, “PubChem BioAssay data set” (2004)
